Reference: publication PMC5094563 (Chemmedchem, 2016)
Where two headings read alike, the source gives them in different places.

How the values were obtained:
[1] = biological target: p110α (Homo sapiens, UniProt P42336); experiment: Biochemical IC50 assay
[2] = biological target: p110β (Homo sapiens, UniProt P42338); experiment: Biochemical IC50 assay
[3] = male Wistar rats; cited from earlier work
[4] = male CD1 mice; cited from earlier work
[5] = system: P‐gp; conditions: cited from earlier work
[6] = system: BCRP; conditions: cited from earlier work
[7] = system: Caco2; conditions: 10 μM, absence of a P‐gp inhibitor; cited from earlier work
[8] = system: P‐gp; conditions: read-out: P‐gp mediated transport inhibition IC50, cited from earlier work
[9] = female Beagle dogs; cited from earlier work
[10] = male humans; cited from earlier work
[11] = all species investigated including mouse, rat, dog and monkey; cited from earlier work
[12] = system: BCRP; conditions: read-out: BCRP mediated transport inhibition IC50; for topotecan; cited from earlier work

p110α, sequence (P42336 109-1068): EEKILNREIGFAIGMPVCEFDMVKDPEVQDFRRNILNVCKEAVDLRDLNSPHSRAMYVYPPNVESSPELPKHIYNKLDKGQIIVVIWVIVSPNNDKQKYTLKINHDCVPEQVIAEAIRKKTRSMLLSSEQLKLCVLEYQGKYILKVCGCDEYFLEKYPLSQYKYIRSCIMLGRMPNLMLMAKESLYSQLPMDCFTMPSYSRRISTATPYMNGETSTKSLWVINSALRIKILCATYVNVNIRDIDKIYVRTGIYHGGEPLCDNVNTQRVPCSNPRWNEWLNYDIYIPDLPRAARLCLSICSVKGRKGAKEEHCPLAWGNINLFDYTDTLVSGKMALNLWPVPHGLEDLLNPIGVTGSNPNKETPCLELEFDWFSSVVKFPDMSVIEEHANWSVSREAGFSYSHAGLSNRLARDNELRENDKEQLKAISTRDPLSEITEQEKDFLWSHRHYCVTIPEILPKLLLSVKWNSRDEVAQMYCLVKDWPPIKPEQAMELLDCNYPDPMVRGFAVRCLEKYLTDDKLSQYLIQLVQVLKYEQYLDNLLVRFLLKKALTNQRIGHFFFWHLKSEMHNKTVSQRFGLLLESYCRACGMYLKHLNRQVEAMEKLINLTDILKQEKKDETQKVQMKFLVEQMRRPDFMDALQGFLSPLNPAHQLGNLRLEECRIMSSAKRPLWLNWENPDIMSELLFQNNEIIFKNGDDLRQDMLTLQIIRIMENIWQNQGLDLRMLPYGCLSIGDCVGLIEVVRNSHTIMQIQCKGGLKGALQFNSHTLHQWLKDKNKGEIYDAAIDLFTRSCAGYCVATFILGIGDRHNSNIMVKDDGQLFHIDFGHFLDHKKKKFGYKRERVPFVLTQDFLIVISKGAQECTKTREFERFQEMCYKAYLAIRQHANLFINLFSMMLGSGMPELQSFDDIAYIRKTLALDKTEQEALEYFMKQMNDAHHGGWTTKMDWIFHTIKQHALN
p110β, sequence (P42338 109-1070): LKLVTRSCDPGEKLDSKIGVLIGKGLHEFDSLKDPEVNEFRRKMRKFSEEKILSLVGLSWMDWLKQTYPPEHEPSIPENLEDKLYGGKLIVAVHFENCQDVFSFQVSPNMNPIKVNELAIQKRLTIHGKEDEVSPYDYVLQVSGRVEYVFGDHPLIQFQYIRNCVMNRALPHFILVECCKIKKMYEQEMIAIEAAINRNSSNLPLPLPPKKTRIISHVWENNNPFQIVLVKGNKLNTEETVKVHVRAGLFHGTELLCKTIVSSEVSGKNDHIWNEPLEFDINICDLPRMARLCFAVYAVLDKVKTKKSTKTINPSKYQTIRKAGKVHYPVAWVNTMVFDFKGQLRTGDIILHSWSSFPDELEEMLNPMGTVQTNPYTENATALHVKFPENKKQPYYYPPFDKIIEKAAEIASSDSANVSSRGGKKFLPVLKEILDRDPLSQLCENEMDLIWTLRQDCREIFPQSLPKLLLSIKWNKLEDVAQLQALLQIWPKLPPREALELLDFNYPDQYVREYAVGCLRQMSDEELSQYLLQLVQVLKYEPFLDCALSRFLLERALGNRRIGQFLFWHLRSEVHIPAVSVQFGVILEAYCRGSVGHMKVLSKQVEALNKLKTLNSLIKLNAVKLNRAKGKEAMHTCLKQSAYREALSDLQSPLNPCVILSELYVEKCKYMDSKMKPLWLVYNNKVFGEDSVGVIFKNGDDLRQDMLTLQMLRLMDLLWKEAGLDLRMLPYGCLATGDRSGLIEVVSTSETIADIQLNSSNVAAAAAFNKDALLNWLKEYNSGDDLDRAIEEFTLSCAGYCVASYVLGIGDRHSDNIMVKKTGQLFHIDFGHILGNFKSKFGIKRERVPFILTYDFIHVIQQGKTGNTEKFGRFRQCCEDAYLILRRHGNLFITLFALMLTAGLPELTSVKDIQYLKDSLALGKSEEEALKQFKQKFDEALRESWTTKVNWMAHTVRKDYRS

Row | SMILES | IC50 [1] [nM] | IC50 [2] [nM] | further results
1 | COc1c(OCC(C)C)ccc2c1N=C(NC(=O)c1cccnc1)N1CCN=C21 [Compd 32 c, N ‐(8‐Isobutoxy‐7‐methoxy‐2,3‐dihydroimidazo[1,2‐c]quinazolin‐5‐yl)nicotinamide] | 8 | 226 | 
2 | COc1c(OCCCCN2CCOCC2)ccc2c1N=C(NC(=O)c1cccnc1)N1CCN=C21 [Compd 32 i, N ‐{7‐Methoxy‐8‐[4‐(morpholin‐4‐yl)butoxy]‐2,3‐dihydroimidazo[1,2‐c]quinazolin‐5‐yl}nicotinamide] |  | 88.1 | 
3 | CC(C)COc1c(OCCCN2CCOCC2)ccc2c1N=C(NC(=O)c1cccnc1)N1CCN=C21 [Compd 34 c, N ‐{7‐Isobutoxy‐8‐[3‐(morpholin‐4‐yl)propoxy]‐2,3‐dihydroimidazo[1,2‐c]quinazolin‐5‐yl}nicotinamide] | 10.2 | 29.1 | 
4 | O=C(NC1=Nc2c(ccc(OCCCN3CCOCC3)c2OCC2CCCCC2)C2=NCCN12)c1cccnc1 [Compd 34 d, N ‐{7‐(Cyclohexylmethoxy)‐8‐[3‐(morpholin‐4‐yl)propoxy]‐2,3‐dihydroimidazo[1,2‐c]quinazolin‐5‐yl}nicotinamide] |  | 88.5 | 
5 | O=C(NC1=Nc2c(ccc(OCCCN3CCOCC3)c2OCC2CCOCC2)C2=NCCN12)c1cccnc1 [Compd 34 e, N ‐{8‐[3‐(Morpholin‐4‐yl)propoxy]‐7‐[(tetrahydro‐2H‐pyran‐4‐yl)methoxy]‐2,3‐dihydroimidazo[1,2‐c]quinazolin‐5‐yl}nicotinamide] | 2.1 | 18.2 | 
6 | O=C(NC1=Nc2c(ccc(OCCCN3CCOCC3)c2OCc2ccncc2)C2=NCCN12)c1cccnc1 [Compd 34 f, N ‐{8‐[3‐(Morpholin‐4‐yl)propoxy]‐7‐[(pyridin‐4‐yl)methoxy]‐2,3‐dihydroimidazo[1,2‐c]quinazolin‐5‐yl}nicotinamide] |  | 19.3 | 
7 | COc1c(OCCCN2CCOCC2)ccc2c1N=C(NC(=O)c1ccc3c(c1)OCO3)N1CCN=C21 [Compd 39 a, N ‐{7‐Methoxy‐8‐[3‐(morpholin‐4‐yl)propoxy]‐2,3‐dihydroimidazo[1,2‐c]quinazolin‐5‐yl}‐1,3‐benzodioxole‐5‐carboxamide] | 20.9 | 668 | 
8 | COc1c(OCCCN2CCOCC2)ccc2c1N=C(NC(=O)c1sc(C)nc1C)N1CCN=C21 [Compd 39 b, N ‐{7‐Methoxy‐8‐[3‐(morpholin‐4‐yl)propoxy]‐2,3‐dihydroimidazo[1,2‐c]quinazolin‐5‐yl}‐2,4‐dimethyl‐1,3‐thiazole‐5‐carboxamide] | 1.6 | 7.8 | 
9 | COc1c(OCCCN2CCOCC2)ccc2c1N=C(NC(=O)c1ccnc(N)c1)N1CCN=C21 [Compd 39 d, 2‐Amino‐N‐{7‐methoxy‐8‐[3‐(morpholin‐4‐yl)propoxy]‐2,3‐dihydroimidazo[1,2‐c]quinazolin‐5‐yl}isonicotinamide] | 6.2 | 16.6 | 
10 | COc1c(OCCCN2CCOCC2)ccc2c1N=C(NC(=O)c1cnc(N)nc1)N1CCN=C21 [Compd 39 i, 2‐Amino‐N‐{7‐methoxy‐8‐[3‐(morpholin‐4‐yl)propoxy]‐2,3‐dihydroimidazo[1,2‐c]quinazolin‐5‐yl}pyrimidine‐5‐carboxamide] |  |  | plasma‐free fraction [3]: 42.5%; plasma‐free fraction [4]: 27.6%; substrate of efflux transporter P‐gp [5]: substrate; substrate of efflux transporter BCRP [6]: substrate; Caco2 P app apical (A) to basal (B) [7]: 5.69 ± 0.291 ×10⁻⁶ cm/s; IC50 ([8]; for digoxin): 7000 nM; IC50 ([8]; for dipyridamole): 7600 nM; plasma‐free fraction [9]: 42.4%; plasma‐free fraction [10]: 15.8%; volume of distribution (V ss) [11]: 7 to 32 L/kg; IC50 [12]: 11500 nM
11 | COc1c(OCCCN2CCOCC2)ccc2c1N=C(NC(=O)c1cnc(N)nc1C)N1CCN=C21 [Compd 39 j, 2‐Amino‐N‐{7‐methoxy‐8‐[3‐(morpholin‐4‐yl)propoxy]‐2,3‐dihydroimidazo[1,2‐c]quinazolin‐5‐yl}‐4‐methylpyrimidine‐5‐carboxamide] | 0.4 | 1 | 

Further lines, with some results ahead:

Row | IC50 [1] [nM] | IC50 [2] [nM] | SMILES | further results
12 | 6.1 | 1510 | COc1c(OCc2ccccc2)ccc2c1N=C(NC(=O)c1cccnc1)N1CCN=C21 [Compd 30, N ‐[8‐(Benzyloxy)‐7‐methoxy‐2,3‐dihydroimidazo[1,2‐c]quinazolin‐5‐yl]nicotinamide] | 
13 | 8.7 | 210 | COc1c(O)ccc2c1N=C(NC(=O)c1cccnc1)N1CCN=C21 [Compd 31, N ‐(8‐Hydroxy‐7‐methoxy‐2,3‐dihydroimidazo[1,2‐c]quinazolin‐5‐yl)nicotinamide] | 
14 | 3.6 | 76.1 | CCOc1ccc2c(c1OC)N=C(NC(=O)c1cccnc1)N1CCN=C21 [Compd 32 b, N ‐(8‐Ethoxy‐7‐methoxy‐2,3‐dihydroimidazo[1,2‐c]quinazolin‐5‐yl)nicotinamide] | 
15 | 3.6 | 18 | COc1c(OCCCN(C)C)ccc2c1N=C(NC(=O)c1cccnc1)N1CCN=C21 [Compd 32 e, N ‐{8‐[3‐(Dimethylamino)propoxy]‐7‐methoxy‐2,3‐dihydroimidazo[1,2‐c]quinazolin‐5‐yl}nicotinamide] | 
16 | 2.9 | 18.3 | COc1c(OCCCN2CCCCC2)ccc2c1N=C(NC(=O)c1cccnc1)N1CCN=C21 [Compd 32 f, N ‐{7‐Methoxy‐8‐[3‐(piperidin‐1‐yl)propoxy]‐2,3‐dihydroimidazo[1,2‐c]quinazolin‐5‐yl}nicotinamide] | 
17 | 1.8 | 20.8 | COc1c(OCCCN2CCOCC2)ccc2c1N=C(NC(=O)c1cccnc1)N1CCN=C21 [Compd 32 g, N ‐{7‐Methoxy‐8‐[3‐(morpholin‐4‐yl)propoxy]‐2,3‐dihydroimidazo[1,2‐c]quinazolin‐5‐yl}nicotinamide] | 
18 | 0.9 | 11.2 | COc1c(OCCN2CCOCC2)ccc2c1N=C(NC(=O)c1cccnc1)N1CCN=C21 [Compd 32 h, N ‐{7‐Methoxy‐8‐[2‐(morpholin‐4‐yl)ethoxy]‐2,3‐dihydroimidazo[1,2‐c]quinazolin‐5‐yl}nicotinamide] | 
19 |  | 55.6 | O=C(NC1=Nc2c(ccc(OCCCN3CCOCC3)c2O)C2=NCCN12)c1cccnc1 [Compd 33, N ‐{7‐Hydroxy‐8‐[3‐(morpholin‐4‐yl)propoxy]‐2,3‐dihydroimidazo[1,2‐c]quinazolin‐5‐yl}nicotinamide] | 
20 |  | 7.8 | CCCOc1c(OCCCN2CCOCC2)ccc2c1N=C(NC(=O)c1cccnc1)N1CCN=C21 [Compd 34 a, N ‐{8‐[3‐(Morpholin‐4‐yl)propoxy]‐7‐propoxy‐2,3‐dihydroimidazo[1,2‐c]quinazolin‐5‐yl}nicotinamide] | 
21 |  | 22.6 | C=CCOc1c(OCCCN2CCOCC2)ccc2c1N=C(NC(=O)c1cccnc1)N1CCN=C21 [Compd 34 b, N ‐{7‐(Allyloxy)‐8‐[3‐(morpholin‐4‐yl)propoxy]‐2,3‐dihydroimidazo[1,2‐c]quinazolin‐5‐yl}nicotinamide] | 
22 |  | 63.7 | COc1c(OCCCN2CCOCC2)ccc2c1N=C(NC(=O)c1ccncc1)N1CCN=C21 [Compd 39 c, N ‐{7‐Methoxy‐8‐[3‐(morpholin‐4‐yl)propoxy]‐2,3‐dihydroimidazo[1,2‐c]quinazolin‐5‐yl}isonicotinamide] | 
23 | 0.6 | 7.9 | COc1c(OCCCN2CCOCC2)ccc2c1N=C(NC(=O)c1ccc(N)nc1)N1CCN=C21 [Compd 39 e, 6‐Amino‐N‐{7‐methoxy‐8‐[3‐(morpholin‐4‐yl)propoxy]‐2,3‐dihydroimidazo[1,2‐c]quinazolin‐5‐yl}nicotinamide] | 
24 | 2.9 | 58.7 | COc1c(OCCCN2CCOCC2)ccc2c1N=C(NC(=O)c1ccc(N(C)C)nc1)N1CCN=C21 [Compd 39 f, 6‐(Dimethylamino)‐N‐{7‐methoxy‐8‐[3‐(morpholin‐4‐yl)propoxy]‐2,3‐dihydroimidazo[1,2‐c]quinazolin‐5‐yl}nicotinamide] | 
25 |  | 351 | COc1c(OCCCN2CCOCC2)ccc2c1N=C(NC(=O)c1cnccn1)N1CCN=C21 [Compd 39 g, N ‐{7‐Methoxy‐8‐[3‐(morpholin‐4‐yl)propoxy]‐2,3‐dihydroimidazo[1,2‐c]quinazolin‐5‐yl}pyrazine‐2‐carboxamide] | 
26 | 132 | 286 | COc1c(OCCCN2CCOCC2)ccc2c1N=C(NC(=O)c1cncnc1)N1CCN=C21 [Compd 39 h, N ‐{7‐Methoxy‐8‐[3‐(morpholin‐4‐yl)propoxy]‐2,3‐dihydroimidazo[1,2‐c]quinazolin‐5‐yl}pyrimidine‐5‐carboxamide] | 
